Source: patent US10420770B2, “Compositions and methods for treating dementia” (EIP Pharma, LLC, priority 2016, dated 2019)
“And” between values parts separate entries of the source, which are not always exact repeats. Equal values may be shown once.

Columns and labels:
[1] = system: patients with mild cognitive impairment (MCI) due to Alzheimer's disease (AD) or with mild AD; assay: Mini-Mental State Examination (MMSE), 12-week study (Example 1); format: in vivo, human; settings: for subjects with an increase from screening of at least 1 in MMSE score: Day 84 (Visit 7)
Description: The MMSE is a questionnaire used extensively in clinical and research settings to measure mental function. It is commonly used to screen for dementia, and to assess the severity and progression of dementia. The MMSE is an effective way to document a human subject's response to treatment. The test examines functions including registration, attention and calculation, recall, language, ability to follow simple commands and orientation.
(§1) Investigators and patients were blind to the dosage strength. […] Patients were instructed to take doses within 30 minutes following a meal or snack, with each dose taken approximately 12 hours apart at the same times each day throughout the study.

[2] = Brain versus blood exposure in animals (preclinical PK); format: in vivo; settings: brain relative to peripheral blood, read-out: exposure in the brains of animals relative to peripheral blood
[3] = Plasma and CSF pharmacokinetics, 6-week Phase IIa study (Example 2); format: in vivo, human
Experimental: Investigators and patients were blinded to the dosage strength. The first 3 patients were randomly assigned to receive either 40 or 125 mg twice daily, with dosing level blinded. The remaining patients (up to 7 patients) received 40 mg twice daily on an open-label basis. […] Patients were instructed to eat a meal approximately 30 minutes before dosing with VX 745 with each dose taken approximately 12 hours (+/−3 hours) apart at the same times each day throughout the study.
Quantitative EEG was conducted as a measure of the effects of inflammatory cytokines on synaptic function and the effects of modulation of p38 MAPK on synaptic plasticity. Brain fluorodeoxyglucose (FDG) PET scan was conducted at the Screening Visit and Day 40 to measure brain metabolism. In addition, CSF drug levels of VX-745 were obtained to confirm delivery of drug to the brain.

[4] = Safety and tolerability, 12-week Phase IIa study (Example 1); format: in vivo, human; settings: 40 mg or 125 mg twice daily, 12 weeks
Experimental: as §1
Sixteen subjects completed the full 12 weeks of treatment and all were included in safety analyses. […] In the PK analysis, due to the sparse sampling collection design, the time period from 0 to 24 hours post-dose was divided into 4 blocks in order to show the distribution of concentrations over time. […] Average blood concentration of about 8 ng/mL at the 40 mg dose level was observed. This is higher than the 5 ng/mL.

[5] = system: patients with mild cognitive impairment (MCI) due to Alzheimer's disease (AD) or with mild AD; assay: Hopkins Verbal Learning Test-Revised (HVLT-R), 6-week study (Example 2); format: in vivo, human; settings: for HVLT-R Delayed Recall change from averaged baseline, Maximum / HVLT-R Delayed Recall change from averaged baseline, Median / HVLT-R Delayed Recall change from averaged baseline, Minimum / HVLT-R RDI change from averaged baseline, Maximum / HVLT-R RDI change from averaged baseline, Median / HVLT-R RDI change from averaged baseline, Minimum / HVLT-R Retention change from averaged baseline, Maximum / HVLT-R Retention change from averaged baseline, Median / HVLT-R Retention change from averaged baseline, Minimum / HVLT-R Total Recall change from averaged baseline, Maximum / HVLT-R Total Recall change from averaged baseline, Median / HVLT-R Total Recall change from averaged baseline, Minimum: n=8; for HVLT-R Delayed Recall change from averaged baseline, Arithmetic Mean / HVLT-R Retention change from averaged baseline, Arithmetic Mean / HVLT-R Total Recall change from averaged baseline, Arithmetic Mean: overall pharmacodynamic population n=8
Experimental: The Hopkins Verbal Learning Test-Revised (HVLT-R) was utilized to assess episodic memory. In this test, 12 specific words from a list were provided verbally, and the subject was asked to recall as many words as possible. Two scores are calculated: (i) Total (Immediate) Recall Score (range: 0-36): combined score of three consecutive trials immediately following provision of words and (ii) Delayed Recall Score (range: 0-12): Number of words recalled when subject was asked 20 to 25 minutes after initial trials to recall as many of the words originally provided. A strength of the HVLT-R is that six different validated version exist that each incorporate a different set of words. Due to the use of these different versions during the course of a clinical study, there is essentially no practice effect with repeated administration (Benedict, R. H. B. et al, “Hopkins Verbal Learning Test-Revised: Normative Data and Analysis of Inter-Form and Test-Retest Reliability” The Clinical Neuropsychologist, 12(1): 43-55 (1998)).

[6] = system: DS (Down's Syndrome) human fibroblasts; assay: EEA1-labeled early endosomes in Down's Syndrome human fibroblasts (Example 4); format: cell-based; settings: 0, 1, 10, or 50 nM VX-745 for 24 hours
Description: Down's Syndrome (DS, Trisomy 21) derived human fibroblasts provide a robust system for studying Alzheimer's related endosomal dysfunction as one of the Familial Alzheimer's disease (FAD) genes, Amyloid Precursor Protein (APP), is expressed on chromosome 21 and as a result inherently DS individuals overexpress APP and develop an Alzheimer's type dementia as they grow older beyond age 40 (Jiang, Y, et. al., “Alzheimer's-related endosome dysfunction in Down syndrome is Aβ-independent but requires APP and is reversed by BACE-1 inhibition,” PNAS 107:1630-1635 (2010)).
In vitro, DS human fibroblasts show increased numbers and enlarged early endosomes by electron microscopy or by fluorescence staining with antibodies to EEA1 (Early Endosome Antigen 1). […] After incubation, the cells were fixed and incubated with anti-EEA1 antibody to label early endosomes.

[7] = Example 2 study (N = 8), HLVT-R

O=c1ncn2nc(Sc3ccc(F)cc3F)ccc2c1-c1c(Cl)cccc1Cl [VX-745]
subjects with an increase from screening of at least 1 in MMSE score ([1]; 40 mg group): approximately 50%
patients with greater than a 3-point improvement in MMSE score over baseline ([1]; 40 mg group, FIG. 2): two of four
subjects with an increase from screening of at least 1 in MMSE score ([1]; 125 mg group): ~33%
Kp [2]: ~1.7
average blood drug concentration (CAVG) ([3]; 40 mg twice daily): 8 ng/mL
expected VX-745 concentrations in the brain ([3]; extrapolated from CSF/plasma and preclinical data): ~14 ng/mL and ~30 nM
Kp ([3]; human, CSF relative to plasma, oral, same time point, read-out: CSF drug levels as share of plasma drug levels): 0.06
half-life ([3]; human, oral, 6-week study plasma PK, read-out: terminal half-life (converted)): 10 h
Cmax ([3]; human, plasma, oral, 40 mg twice daily): 23 ng/mL
liver transaminase elevations [4]: No liver transaminase elevations
serious adverse events [4]: No serious adverse events
tolerability [4]: well tolerated
HVLT-R Delayed Recall change from averaged baseline, Maximum ([5]; Day 14): 4
HVLT-R Delayed Recall change from averaged baseline, Median ([5]; Day 14): 1.0
HVLT-R Delayed Recall change from averaged baseline, Minimum ([5]; Day 14): −3
HVLT-R RDI change from averaged baseline, Maximum ([5]; Day 14): 5
HVLT-R RDI change from averaged baseline, Median ([5]; Day 14): −0.3
HVLT-R RDI change from averaged baseline, Minimum ([5]; Day 14): −3
HVLT-R Retention change from averaged baseline, Maximum ([5]; Day 14): 35%
HVLT-R Retention change from averaged baseline, Median ([5]; Day 14): 6.3%
HVLT-R Retention change from averaged baseline, Minimum ([5]; Day 14): −37%
HVLT-R Total Recall change from averaged baseline, Maximum ([5]; Day 14): 6
HVLT-R Total Recall change from averaged baseline, Median ([5]; Day 14): 0.0
HVLT-R Total Recall change from averaged baseline, Minimum ([5]; Day 14): −2
HVLT-R Delayed Recall change from averaged baseline, Arithmetic Mean ([5]; Day 14): 0.8
HVLT-R Retention change from averaged baseline, Arithmetic Mean ([5]; Day 14): 3.8%
HVLT-R Total Recall change from averaged baseline, Arithmetic Mean ([5]; Day 14): 0.6
HVLT-R Delayed Recall change from averaged baseline, Maximum ([5]; Day 40): 7
HVLT-R Delayed Recall change from averaged baseline, Median ([5]; Day 40): 1.0
HVLT-R Delayed Recall change from averaged baseline, Minimum ([5]; Day 40): 0
HVLT-R RDI change from averaged baseline, Maximum ([5]; Day 40): 6
HVLT-R RDI change from averaged baseline, Median ([5]; Day 40): 1.3
HVLT-R RDI change from averaged baseline, Minimum ([5]; Day 40): −11
HVLT-R Retention change from averaged baseline, Maximum ([5]; Day 40): 71%
HVLT-R Retention change from averaged baseline, Median ([5]; Day 40): 6.5%
HVLT-R Retention change from averaged baseline, Minimum ([5]; Day 40): −14%
HVLT-R Total Recall change from averaged baseline, Maximum ([5]; Day 40): 10
HVLT-R Total Recall change from averaged baseline, Median ([5]; Day 40): 4.5
HVLT-R Total Recall change from averaged baseline, Minimum ([5]; Day 40): −3
HVLT-R Delayed Recall change from averaged baseline, Arithmetic Mean ([5]; Day 40): 2.1
HVLT-R Retention change from averaged baseline, Arithmetic Mean ([5]; Day 40): 15.3%
HVLT-R Total Recall change from averaged baseline, Arithmetic Mean ([5]; Day 40): 3.5
Calculated within-subject treatment effect size (Cohen's d), Delayed Recall [5, 7]: .86
Calculated within-subject treatment effect size (Cohen's d), Immediate Recall [5, 7]: .69
Median increase in HVLT-R Total Recall score ([5]; during 6-week treatment): 4.5 (range: −2.5 to +9.5)
HVLT-R Mean Total Recall score ([5]; week 6, Baseline 19.1 (±1.5), p=0.015): 22.6 (±2.1)
HVLT-R Delayed Recall score ([5]; week 6, baseline 5.4 (±0.6), P=0.028): 7.5 (±1.1)
average number of EEA1-labeled endosomes per DS cell [6]: significantly reduced
average size of EEA1-labeled endosomes in DS cells [6]: significantly reduced
